Source: the NIST ThermoML archive (doi:10.1021/je900807v)
± gives the expanded uncertainty stated by the source.

Columns and labels:
[1] = refractive index (Na D-line) (dimensionless); conditions: 298.15 K; 101.33 kPa; Liquid; Standard Abbe refractometry
[2] = 298.15 K, 101.33 kPa, Liquid
[3] = xn = mol fraction of the nth substance listed; conditions: 298.15 K, 101 kPa, Liquid

For `CCOS(=O)(=O)[O-].CC[n+]1cccc(C)c1` [1-ethyl-3-methylpyridinium ethylsulfate], the refractive index [1] was 1.50591 ± 0.0007 and the mass density ([2]; Vibrating tube method) was 1219.61 ± 0.42 kg/m3.

`Cc1ccccc1` [toluene] + CC1CCCCC1 showed a mass density ([3]; x2 = 0) of 862.17 ± 0.18 kg/m3.

`CC1CCCCC1` [methylcyclohexane] + CCc1ccccc1 showed a mass density ([3]; x1 = 0.0494) of 857.22 ± 0.19 kg/m3, a mass density ([3]; x1 = 0.0975) of 852.13 ± 0.19 kg/m3 and a mass density ([3]; x1 = 0.1983) of 841.55 ± 0.21 kg/m3. The mass density ([3]; x1 = 0.2981) was 831.2 ± 0.23 kg/m3, the mass density ([3]; x1 = 0.4008) was 820.93 ± 0.25 kg/m3 and the mass density ([3]; x1 = 0.5005) was 811.01 ± 0.26 kg/m3. For the same compound, the mass density ([3]; x1 = 0.6001) was 801.41 ± 0.28 kg/m3, the mass density ([3]; x1 = 0.7006) was 792.06 ± 0.3 kg/m3 and the mass density ([3]; x1 = 0.7952) was 783.15 ± 0.32 kg/m3. It also gave a mass density ([3]; x1 = 0.8949) of 774.23 ± 0.34 kg/m3, a mass density ([3]; x1 = 0.9495) of 769.34 ± 0.35 kg/m3 and a mass density ([3]; x1 = 1) of 765.02 ± 0.36 kg/m3.

For `CC1CCCCC1` [methylcyclohexane] + Cc1ccccc1, the mass density ([3]; x1 = 0.05) was 855.9 ± 0.18 kg/m3, the mass density ([3]; x1 = 0.0998) was 849.91 ± 0.19 kg/m3 and the mass density ([3]; x1 = 0.198) was 838.24 ± 0.21 kg/m3. For the same compound, the mass density ([3]; x1 = 0.2951) was 827.41 ± 0.22 kg/m3, the mass density ([3]; x1 = 0.3968) was 816.83 ± 0.24 kg/m3 and the mass density ([3]; x1 = 0.4959) was 806.9 ± 0.26 kg/m3. It also gave a mass density ([3]; x1 = 0.5973) of 797.45 ± 0.28 kg/m3, a mass density ([3]; x1 = 0.697) of 788.64 ± 0.3 kg/m3 and a mass density ([3]; x1 = 0.7954) of 780.42 ± 0.32 kg/m3. It also gave a mass density ([3]; x1 = 0.8932) of 772.71 ± 0.34 kg/m3, a mass density ([3]; x1 = 0.9487) of 768.66 ± 0.35 kg/m3 and a mass density ([3]; x1 = 1) of 765.02 ± 0.36 kg/m3.

Work on `CC1CCCCC1` [methylcyclohexane] yielded a refractive index [1] of 1.42062 ± 0.0007 and a mass density [2] of 765.02 ± 0.36 kg/m3.

Work on `c1ccccc1` [benzene] yielded a refractive index [1] of 1.49774 ± 0.00068 and a mass density [2] of 873.57 ± 0.17 kg/m3.

Work on `CCc1ccccc1` [ethylbenzene] yielded a refractive index [1] of 1.49304 ± 0.00068 and a mass density [2] of 862.51 ± 0.18 kg/m3.

`CCc1ccccc1` [ethylbenzene] + CC1CCCCC1 gave a mass density ([3]; x2 = 0) of 862.51 ± 0.18 kg/m3.

Work on `Cc1ccccc1` [toluene] yielded a refractive index [1] of 1.49399 ± 0.00068 and a mass density [2] of 862.17 ± 0.18 kg/m3.

With `c1ccccc1` [benzene] + CC1CCCCC1 the mass density ([3]; x2 = 0) was 873.57 ± 0.17 kg/m3.

`CC1CCCCC1` [methylcyclohexane] + c1ccccc1 showed a mass density ([3]; x1 = 0.0504) of 865.01 ± 0.18 kg/m3, a mass density ([3]; x1 = 0.099) of 857.13 ± 0.19 kg/m3 and a mass density ([3]; x1 = 0.1998) of 841.92 ± 0.2 kg/m3. The mass density ([3]; x1 = 0.2978) was 829.01 ± 0.22 kg/m3, the mass density ([3]; x1 = 0.3991) was 816.54 ± 0.24 kg/m3 and the mass density ([3]; x1 = 0.4993) was 805.76 ± 0.26 kg/m3. The mass density ([3]; x1 = 0.598) was 796.03 ± 0.28 kg/m3, the mass density ([3]; x1 = 0.6991) was 787.22 ± 0.3 kg/m3 and the mass density ([3]; x1 = 0.7981) was 779.31 ± 0.32 kg/m3. It also gave a mass density ([3]; x1 = 0.8961) of 772.04 ± 0.34 kg/m3, a mass density ([3]; x1 = 0.9523) of 768.25 ± 0.35 kg/m3 and a mass density ([3]; x1 = 1) of 765.02 ± 0.36 kg/m3.
